One may read the IC50 as the concentration at which inhibition is half-maximal. The term Kd denotes a measure of binding affinity in units of concentration. As usually defined, the T/C is the ratio of treated to control.

Data set [1] deals with K562. The experiment in a line: Antiproliferative activity against human K562 cells assessed as inhibition of cell proliferation measured after 72 hrs by MTT assay. The following applies: K562, 72 h. The data set is classed as functional, cell-based.
For another data set, the system named is HCT-116. Briefly: Antiproliferative activity against human HCT-116 cells with inactivated p53 gene assessed as inhibition of cell proliferation measured after 72 hrs by MTT assay. The data set is classed as functional, cell-based. The following applies: HCT-116, 72 h. A general note: Tetrazolium dyes change colour on reduction, which living cells bring about.

The test system of another data set is TERT-RPE1. The experiment in a line: Cytotoxicity against human TERT-RPE1 cells assessed as inhibition of cell proliferation measured after 72 hrs by MTT assay. In kind it is cell-based. The following applies: RPE-1, 72 h.
Data set [2] can be described thus: Selectivity index, ratio of IC50 for human TERT-RPE1 cells to IC50 for human CAPAN-1 cells.
A short description of data set [3]: Resistance index, ratio of IC50 for human P-gp-positive/Doxorubicin-resistant K562/4 cells to IC50 for human K562 cells. The data set is classed as functional.
The subject of data set [4] is Calf thymus DNA. The experiment in a line: Binding affinity to calf thymus double stranded DNA at 10 uM measured after 5 mins by flourescence spectroscopy method. The following applies: Bos taurus.
For data set [5], the system named is Calf thymus DNA. The experiment in a line: Binding affinity to calf thymus DNA assessed as DNA intercalation by measuring decrease of negative DNA band at 245 nm at 50 uM by circular dichroism spectral analysis. To be noted: Bos taurus. The data set is classed as tissue-based. On the technique in general: Circular dichroism is widely used to follow secondary structure.

The test system of data set [6] is Calf thymus DNA. The experiment in a line: Binding affinity to calf thymus DNA assessed as dissociation constant by scatchard plot analysis. More on the design: species or system Bos taurus.
The nature of data set [7]: Drug uptake in mouse NIH3T3 cells assessed as compound localization in cytoplasm at 1 uM measured after 15 mins by laser scanning microscope. The data set is classed as ADME, subcellular. The following applies: nih3t3, 0.25 h.
Data set [8] deals with K562. The experiment in a line: Induction of apoptosis in human K562 cells assessed as viable cells at 1.6 uM measured after 24 hrs by Annexin V-APC/PI staining based flow cytometry assay (reference value: 85.9%). In kind it is functional. To be noted: read-out: Activity. Background: In flow cytometry, cells or beads pass a laser one at a time.
Data set [9] has as its system K562. The experiment in a line: Induction of apoptosis in human K562 cells assessed as late apoptotic cells at 1.6 uM measured after 48 hrs by Annexin V-APC/PI staining based flow cytometry assay (reference value: […]). The data set is classed as functional.
Data set [10] concerns P388. Briefly: Antitumour activity against mouse P388 cells xenografted intraperitoneally in BDF1 mouse assessed as […] T/C ratio at 20 mg/kg, ip administered qd for 5 days (reference value: 100%). The data set is classed as functional. To be noted: dose 20 mg/kg/day; time 5 day.
A short description of data set [11]: Selectivity index, ratio of IC50 for human TERT-RPE1 cells to IC50 for human NCI-H460 cells. The data set is classed as toxicity. The following applies: TERT-RPE1 cells and NCI-H460 cells, read-out: Ratio IC50.
Data set [12] can be described thus: Selectivity index, ratio of IC50 for human TERT-RPE1 cells to IC50 for human HL-60 cells. To be noted: TERT-RPE1 cells and HL-60 cells, read-out: Ratio IC50. The data set is classed as toxicity.
Data set [13] has as its system K562. The experiment in a line: Induction of cell cycle arrest in human K562 cells assessed as accumulation at G2/M phase at 2XIC50 measured after 24 hrs by propidium iodide/RNase staining based flow cytometry. The data set is classed as functional.
In data set [14] the test system is K562. The experiment in a line: Induction of cell cycle arrest in human K562 cells assessed as accumulation at subG1 phase at 2XIC50 measured after 24 hrs by propidium iodide/RNase staining based flow cytometry. In kind it is functional.
Data set [15] has as its system P388. The experiment in a line: Antitumour activity against mouse P388 cells xenografted subcutaneously in BDF1 mouse assessed as inhibition of tumour growth at 20 to 60 mg/kg, ip administered qd for 5 days starting from day 1 of tumor cell inoculation and measured at day 14 to 18 post-tumor cell inoculation. The data set is classed as functional, organism-based. The following applies: dose 20-60 mg/kg, time 14-18 day, TDE = time-dependent effect.

Structures are written as SMILES. Active and inactive are the calls of the source. No cut-off for these calls is given here.

With `Cc1[nH]c2c(O)c3c(c(O)c2c1C(=O)N1CC[C@H](N)C1)C(=O)c1ccccc1C3=O`, the IC50 in the data set on K562 [1] came to 800 nM; in the data set on HCT-116, 800 nM; in the data set on TERT-RPE1, 15800 nM. In addition, the “Ratio IC50” value in data set [2] is reported as 18; in [3], 26.5. Further, the outcome in the data set with Calf thymus DNA [4], in the data set on Calf thymus DNA [5], with K562 [13] and in the data set on K562 [14] was Active. In addition, the dissociation constant (Kd) with Calf thymus DNA [6] was found to be 700 nM. Further, the Drug uptake entry in data set [7] is on record as “Active”. Moreover, the viability at 1.6 µM in the data set with K562 [8] was 69.4%. In addition, the Activity is 7.5% with K562 [9] and “Tde” with P388 [15]. For the same compound, the T/C with P388 [10] was determined as 153%. In addition, the selectivity ratio in data set [11] and in [12] was 18 throughout.

The values are drawn from ChEMBL document CHEMBL4765331, “Amides of pyrrole- and thiophene-fused anthraquinone derivatives: A role of the heterocyclic core in antitumor properties” (Eur J Med Chem, 2020).
